For 27 compounds, IC50 results are on record in patent US12103926B2, “Compounds for treating huntington's disease” (PTC THERAPEUTICS, INC., priority 2018, dated 2024).

This experiment has as its system Endogenous Huntingtin Protein. In words: Endogenous Huntingtin Protein Assay (ELISA-based MSD electrochemiluminescence assay). Particulars: MW1 (expanded polyglutamine) or MAB2166 capture antibody; lysates. Format: cell-based. Here is the method: Compounds of Formula (I) were tested using the Meso Scale Discovery (MSD) Assay provided in International Application No. PCT/US2016/066042, filed on Dec. 11, 2016 and claiming priority to United States Provisional Application U.S. 62/265,652 filed on Dec. 10, 2015, the entire contents of which are incorporated herein by reference.
The Endogenous Huntingtin Protein assay used in Example 1 was developed using the ELISA-based MSD electrochemiluminescence assay platform.
Endogenous Huntingtin Protein Assay
Meso Scale Discovery (MSD) 96-well or 384-well plates were coated overnight at 4° C. with MW1 (expanded polyglutamine) or MAB2166 monoclonal antibody (for capture) at a concentration of 1 μg/mL in PBS (30 μL per well). Plates were then washed three times with 300 μL wash buffer (0.05% Tween-20 in PBS) and blocked (100 μL blocking buffer; 5% BSA in PBS) for 4-5 hours at room temperature with rotational shaking and then washed three times with wash buffer.
Samples (25 μL) were transferred to the antibody-coated MSD plate and incubated overnight at 4° C. After removal of the lysates, the plate was washed three times with wash buffer, and 25 μL of #5656S (Cell signaling; rabbit monoclonal) secondary antibody (diluted to 0.25 μg/mL in 0.05% Tween-20 in blocking buffer) was added to each well and incubated with shaking for 1 Hour at room temperature. Following incubation with the secondary antibody, the wells were rinsed with wash buffer after which 25 μL of goat anti-rabbit SULFO TAG secondary detection antibody (required aspect of the MSD system) (diluted to 0.25 μg/mL in 0.05% Tween-20 in blocking buffer) was added to each well and incubated with shaking for 1 hour at room temperature. After rinsing three times with wash buffer, 150 μL of read buffer T with surfactant (MSD) were added to each empty well, and the plate was imaged on a SI 6000 imager (MSD) according to manufacturers' instructions provided for 96- or 384-well plates.
The compound `CN(c1cnc(-c2ccc(-c3cnn(C)c3)cc2O)cn1)C1CC(C)(C)NC(C)(C)C1` [Cpd 27, 5-(1-methyl-1H-pyrazol-4-yl)-2-{5-[methyl(2,2,6,6-tetramethylpiperidin-4-yl)amino]pyrazin-2-yl} phenol] gave an IC50 of 100 to 500 nM.

In the case of `[2H]C([2H])([2H])n1cc(-c2ccc(-c3cnc(N(C)C4CC(C)(C)NC(C)(C)C4)cn3)c(O)c2)cn1` [Cpd 28, 5-[1-(^2H3)methyl-1H-pyrazo1-4-yl]-2-{5-[methyl(2,2,6,6-tetramethylpiperidin-4-yl)amino]pyrazin-2-yl}phenol], the IC50 is 500 to 1000 nM.

`Cc1cn(-c2ccc(-c3cnc(N(C)C4CC(C)(C)NC(C)(C)C4)cn3)c(F)c2F)cn1` [Cpd 41, 5-[2,3-difluoro-4-(4-methyl-1H-imidazol-1-yl)phenyl]-N-methyl-N-(2,2,6,6-tetramethylpiperidin-4-yl)pyrazin-2-amine] showed an IC50 of 500 to 1000 nM.

With `Cc1ncn(-c2cc(F)c(-c3cnc(N(C)C4CC(C)(C)NC(C)(C)C4)cn3)cc2F)n1` [Cpd 42, 5-[2,5-difluoro-4-(3-methyl-1H-1,2,4-triazol-1-yl)phenyl]-N-methyl-N-(2,2,6,6-tetramethylpiperidin-4-yl)pyrazin-2-amine], the IC50 is 100 to 500 nM.

In turn, `CN(c1cnc(-c2ccc(-c3c[nH]nc3F)cc2O)cn1)C1CC(C)(C)NC(C)(C)C1` [Cpd 43, 5-(3-fluoro-1H-pyrazol-4-yl)-2-{5-[methyl(2,2,6,6-tetramethylpiperidin-4-yl)amino]pyrazin-2-yl}phenol] yielded an IC50 of 100 to 500 nM.

Turning to `CC1(C)CC(Nc2cnc(-c3ccc(-c4ccncc4)cc3O)cn2)CC(C)(C)N1` [Cpd 44, 5-(pyridin-4-yl)-2-{5-[(2,2,6,6-tetramethylpiperidin-4-yl)amino]pyrazin-2-yl} phenol], the IC50 is 100 to 500 nM.

For `CC1(C)CC(Nc2cnc(-c3ccc(-c4cccnc4)cc3O)cn2)CC(C)(C)N1` [Cpd 45, 5-(pyridin-3-yl)-2-{5-[(2,2,6,6-tetramethylpiperidin-4-yl)amino]pyrazin-2-yl}phenol], the IC50 lay in the range of 500 to 1000 nM.

For `CC1(C)CC(Nc2cnc(-c3ccc(-c4cn[nH]c4)cc3O)cn2)CC(C)(C)N1` [Cpd 46, 5-(1H-pyrazol-4-yl)-2-{5-[(2,2,6,6-tetramethylpiperidin-4-yl)amino]pyrazin-2-yl}phenol], the IC50 was under 100 nM.

Compound `CC1(C)CC(Nc2cnc(-c3ccc(-c4ncccn4)cc3O)cn2)CC(C)(C)N1` [Cpd 47, 5-(pyrimidin-2-yl)-2-{5-[(2,2,6,6-tetramethylpiperidin-4-yl)amino]pyrazin-2-yl} phenol] gave an IC50 of 1000 to 3000 nM.

The compound `CC1(C)CC(Nc2cnc(-c3ccc(-c4ccccn4)cc3O)cn2)CC(C)(C)N1` [Cpd 48, 5-(pyridin-2-yl)-2-{5-[(2,2,6,6-tetramethylpiperidin-4-yl)amino]pyrazin-2-yl}phenol] yielded an IC50 of 3000 to 9000 nM.

Compound `COc1cc(-c2ccc(-c3cnc(NC4CC(C)(C)NC(C)(C)C4)cn3)c(O)c2)ncn1` [Cpd 49, 5-(6-methoxypyrimidin-4-yl)-2-{5-[(2,2,6,6-tetramethylpiperidin-4-yl)amino]pyrazin-2-yl}phenol] returned an IC50 of under 100 nM.

On to `CC1(C)CC(Nc2cnc(-c3ccc(-n4ccnc4)cc3O)cn2)CC(C)(C)N1` [Cpd 50, 5-(1H-imidazol-1-yl)-2-{5-[(2,2,6,6-tetramethylpiperidin-4-yl)amino]pyrazin-2-yl}phenol], for which the IC50 lay in the range of 100 to 500 nM.

The compound `CC1(C)CC(Nc2cnc(-c3ccc(-n4nccn4)cc3O)cn2)CC(C)(C)N1` [Cpd 51, 2-{5-[(2,2,6,6-tetramethylpiperidin-4-yl)amino]pyrazin-2-yl}-5-(2H-1,2,3-triazol-2-yl)phenol] had an IC50 of 500 to 1000 nM.

Turning to `CC(C)(C)NC1CCN(c2cnc(-c3ccc(-c4cn[nH]c4)cc3O)cn2)C1` (stereo not drawn) [Cpd 52, 2-{5-[3-(tert-butylamino)pyrrolidin-1-yl]pyrazin-2-yl}-5-(1H-pyrazol-4-yl)phenol], the IC50 was under 100 nM.

Take `CC1(C)CC(Nc2cnc(-c3ccc(-c4cn5ccnc5cn4)cc3O)cn2)CC(C)(C)N1` [Cpd 53, 5-(imidazo[1,2-a]pyrazin-6-yl)-2-{5-[(2,2,6,6-tetramethylpiperidin-4-yl)amino]pyrazin-2-yl}phenol]: the IC50 fell in the range of 100 to 500 nM.

The compound `Cn1cc(-c2ccc(-c3cnc(NC4CC(C)(C)NC(C)(C)C4)cn3)c(O)c2)cn1` [Cpd 54, 5-(1-methyl-1H-pyrazol-4-yl)-2-{5-[(2,2,6,6-tetramethylpiperidin-4-yl)amino]pyrazin-2-yl}phenol] returned an IC50 of under 100 nM.

Turning to `Cn1ccc(-c2ccc(-c3cnc(NC4CC(C)(C)NC(C)(C)C4)cn3)c(O)c2)n1` [Cpd 55, 5-(1-methyl-1H-pyrazol-3-yl)-2-{5-[(2,2,6,6-tetramethylpiperidin-4-yl)amino]pyrazin-2-yl}phenol], the 50% inhibitory concentration (IC50) lay in the range of 500 to 1000 nM.

With `CC1(C)CC(Nc2cnc(-c3ccc(-c4ccc5nccn5n4)cc3O)cn2)CC(C)(C)N1` [Cpd 56, 5-(imidazo[1,2-b]pyridazin-6-yl)-2-{5-[(2,2,6,6-tetramethylpiperidin-4-yl)amino]pyrazin-2-yl}phenol], the IC50 is under 100 nM.

`CC1(C)CC(Nc2cnc(-c3ccc(-c4cn[nH]c4F)cc3O)cn2)CC(C)(C)N1` [Cpd 57, 5-(5-fluoro-1H-pyrazol-4-yl)-2-{5-[(2,2,6,6-tetramethylpiperidin-4-yl)amino]pyrazin-2-yl}phenol]: the IC50 is under 100 nM.

On to `CC1(C)CC(Nc2cnc(-c3ccc(-c4cc[nH]n4)cc3O)cn2)CC(C)(C)N1` [Cpd 58, 5-(1H-pyrazol-3-yl)-2-{5-[(2,2,6,6-tetramethylpiperidin-4-yl)amino]pyrazin-2-yl}phenol], for which the IC50 fell in the range of 100 to 500 nM.

On to `CC1(C)CC(Nc2cnc(-c3ccc(-n4cc(F)cn4)cc3O)cn2)CC(C)(C)N1` [Cpd 59, 5-(4-fluoro-1H-pyrazol-1-yl)-2-{5-[(2,2,6,6-tetramethylpiperidin-4-yl)amino]pyrazin-2-yl}phenol], for which the IC50 fell in the range of 1000 to 3000 nM.

On to `[2H]C([2H])([2H])n1cc(-c2ccc(-c3cnc(N4CCC(NC(C)(C)C)C4)cn3)c(O)c2)cn1` (stereo not drawn) [Cpd 60, 2-{5-[3-(tert-butylamino)pyrrolidin-1-yl]pyrazin-2-yl}-5-[1-(^2H3)methyl-1H-pyrazol-4-yl]phenol], for which the IC50 is under 100 nM.

Take `CN(c1cnc(-c2ccc(-n3nccn3)cc2O)cn1)C1CC(C)(C)NC(C)(C)C1` [Cpd 61, 2-{5-[methyl(2,2,6,6-tetramethylpiperidin-4-yl)amino]pyrazin-2-yl}-5-(2H-1,2,3-triazol-2-yl)phenol]: the half-maximal inhibitory concentration (IC50) is 100 to 500 nM.

In the case of `Cn1cc(-c2ccc(-c3cnc(N4CCC(NC(C)(C)C)C4)cn3)c(O)c2)cn1` (stereo not drawn) [Cpd 62, 2-{5-[3-(tert-butylamino)pyrrolidin-1-yl]pyrazin-2-yl}-5-(1-methyl-1H-pyrazol-4-yl)phenol], the IC50 was under 100 nM.

Take `CC(C)(C)NC1CCN(c2cnc(-c3ccc(-c4cn[nH]c4)c(F)c3F)cn2)C1` (stereo not drawn) [Cpd 63, N-tert-butyl-1-{5-[2,3-difluoro-4-(1H-pyrazol-4-yl)phenyl]pyrazin-2-yl}pyrrolidin-3-amine]: the IC50 is 100 to 500 nM.

`CC(C)(C)NC1CCN(c2cnc(-c3cc(F)c(-c4cn[nH]c4)cc3F)cn2)C1` (stereo not drawn) [Cpd 64, N-tert-butyl-1-{5-[2,5-difluoro-4-(1H-pyrazol-4-yl)phenyl]pyrazin-2-yl}pyrrolidin-3-amine] registered an IC50 of under 100 nM.

In turn, `CC(C)(C)NC1CCN(c2cnc(-c3ccc(-c4c[nH]nc4F)cc3O)cn2)C1` (stereo not drawn) [Cpd 65, 2-{5-[3-(tert-butylamino)pyrrolidin-1-yl]pyrazin-2-yl}-5-(3-fluoro-1H-pyrazol-4-yl)phenol] had an IC50 of under 100 nM.

One may read the IC50 as the point on the concentration scale where inhibition reaches its midpoint. Low values mean greater potency, high ones weaker potency.
